Where two headings read alike, the source gives them in different places.
What was measured:
[1] = system: a plurality of cancer cell lines; assay: Various human cancer cells-2, summary over the cell lines (Experimental Example 6); format: cell-based; settings: cancer cell lines under three-dimensional conditions
Procedure: (§1) Various human-derived cancer cells were precultured (single layer culture) in respective media shown below. […] The above-mentioned cells in the logarithmic growth phase were washed with PBS, a 0.25 w/v % trypsin-1 mmol/L EDTA (ethylenediaminetetraacetic acid) solution (manufactured by Wako Pure Chemical Industries, Ltd.) was added, and adherent cells were detached by incubating at 37° C. for 1-5 min. Each medium was added and the mixture was centrifuged. After resuspension in the same medium, each cell was recovered.
(§2) The aforementioned various cells were suspended in respective deacylated gellan gum-containing or not containing media (deacylated gellan gum concentration was 0.015 w/v %), and seeded in a 96 well low attachment U-bottom plate (manufactured by Corning, #4520, deacylated gellan gum-free medium), or a low attachment flat bottom plate (manufactured by Corning, #3474, deacylated gellan gum-containing medium) at a cell concentration of 700-12000 cells/90 μL/well (all 3D culture). […] The amount of each compound solution to be added was 10 μL/well. As a control, a DMSO solution dissolved in a medium was added (DMSO final concentration 0.1%). […] When compared with the compound no-addition (control), one showing a value of not more than 119% as -, one showing a value of not less than 120% as ◯, and one showing a value of not less than 150% as ⊚ are shown in the eleventh table and the twelfth table. Unperformed test is left blank.

[2] = system: human ovarian cancer cell line SKOV3; assay: Action on SKOV3 cell-2: 3D (deacylated gellan gum) and 2D culture, EGF medium, ATP assay (Experimental Example 3); settings: for viability at 1 µM / viability at 5 µM / viability at 10 µM / viability at 20 µM: Homo sapiens, SK-OV-3, 96 h, 4 days, compound non-addition = 100%
Procedure: According to the method of patent document 1 (WO 2014/017513), a composition of McCoy's 5a medium (manufactured by Sigma-Aldrich) containing 0.015% (w/v) deacylated gellan gum (KELCOGEL CG-LA, manufactured by Sansho Co., Ltd.) and 15% (v/v) FBS, 30 ng/mL human EGF (manufactured by PEPROTECH) was prepared using FCeM-series Preparation Kit (manufactured by Wako Pure Chemical Industries, Ltd.). In a single layer culture, a non-addition medium composition not containing deacylated gellan gum was prepared. Then, human ovarian cancer cell line SKOV3 (manufactured by DS PHARMA BIO MEDICAL) was suspended in the above-mentioned medium composition added with deacylated gellan gum, and dispensed into the wells of a 384 well flat bottom Ultr-low Attachment surface microplate (manufactured by Corning Incorporated, #3827) at 1000 cells/36 μL/well (three-dimensional culture (3D)). In a single layer culture (2D), human ovarian cancer cell line SKOV3 was suspended in the above-mentioned medium composition not containing deacylated gellan gum, and dispensed into the wells of a 384 well flat bottom microplate (manufactured by Corning Incorporated, #3712) at 400 cells/36 μL per well. After dispensing, the compound to be used in the present invention dissolved in dimethyl sulfoxide (DMSO) was added by 4 μL each at a final concentration of 0, 1, 5, 10, 20 μM, and continuously cultured for 4 days. Each plate was cultured in a standing state in a CO2 incubator (37° C., 5% CO2) for 4 days. An ATP reagent (40 μL) (CellTiter-Glo (registered trade mark) Luminescent Cell Viability Assay, manufactured by Promega) was added to the culture medium on day 4, and the mixture was stirred by a plateshaker (manufactured by AS ONE Corporation, Micro plate mixer NS-P) at room temperature for 15 min. The luminescence intensity (RLU value) was measured by EnSpire (manufactured by Perkin Elmer) and the luminescence value of the medium alone was subtracted to measure the number of viable cells.

[3] = system: Bone marrow-derived human mesenchymal stem cells (BM-hMSC); assay: Human mesenchymal stem cell-2: 3D, EZSPHERE and 2D culture, ATP assay (Experimental Example 10); format: cell-based; settings: for viability at 1 µM / viability at 5 µM / viability at 10 µM / viability at 20 µM: Homo sapiens, Mesenchymal stem cells, 96 h, read-out: relative value of RLU (number of viable cells), BM-hMSC, 4 days, non-addition = 100%
Procedure: Bone marrow-derived human mesenchymal stem cells (BM-hMSC, manufactured by PromoCell) were precultured by a single layer culture method (2D) using a mesenchymal stem cell proliferation medium (manufactured by PromoCell). In three-dimensional culture method (3D), hMSC was suspended in a medium composition added with deacylated gellan gum, and seeded in a […] flat bottom Ultr-low Attachment surface plate (manufactured by Corning Incorporated, #3474) at 6000 cells/90 μL/well. In the three-dimensional culture method using EZSPHERE (EZSPHERE), hMSC was suspended in a deacylated gellan gum-free medium composition, and seeded in a 96-well EZSPHERE plate (manufactured by AGC TECHNO GLASS CO., LTD., #4860-900) at 2000 cells/90 μL/well. In 2D, hMSC was suspended in a deacylated gellan gum-free medium composition, and seeded in a 96-well flat bottom plate (manufactured by Corning Incorporated, #3585) at 2000 cells/90 μL/well. […] As a control, DMSO was added at a final concentration of 0.1%.

[4] = system: human alveolar basal epithelial adenocarcinoma-derived cell line A549; assay: Various human cancer cells-2, 3D culture, ATP assay (Experimental Example 6); format: cell-based; settings: 4 days
Procedure: as §1, §2

[5] = system: human ovarian cancer cell line SKOV3; assay: as above; format: cell-based; settings: 4 days
Procedure: as §1, §2

[6] = read-out: relative value of RLU (number of viable cells), 2D single layer culture
[7] = read-out: relative value of RLU (number of viable cells), 3D culture (deacylated gellan gum)
[8] = low attachment U-bottom plate, 5 μM
[9] = low attachment U-bottom plate, 10 μM
[10] = low attachment flat bottom plate (gellan gum medium), 5 μM
[11] = low attachment flat bottom plate (gellan gum medium), 10 μM

For `CC/C(=N\NC(=O)NCc1cccc(O)c1)c1ccc(O)c(C)c1O` [k-1:J-1], the “proliferation activity (in words)” value [1] was “promoted proliferation activity in a plurality of cancer cell lines”, the viability at 1 µM [2, 6] was 93% and the viability at 5 µM [2, 6] was 96%. The viability at 10 µM [2, 6] was 97%, the viability at 20 µM [2, 6] was 102% and the viability at 1 µM [2, 7] was 116%. For the same molecule, the viability at 5 µM [2, 7] was 170%, the viability at 10 µM [2, 7] was 186% and the viability at 20 µM [2, 7] was 173%. The “cell proliferation promoting effect (in words)” value ([2]; single layer culture (2D) of SKOV3 cells) was “a favorable cell proliferation promoting effect was not observed”, the “cell proliferation promoting effect (in words)” value ([2]; three-dimensional culture (3D) of SKOV3 cells) was “exhibited cell proliferation promoting effect at a wide concentration range” and the viability at 1 µM ([3]; 2D) was 107%. It also gave a viability at 5 µM ([3]; 2D) of 121%, a viability at 10 µM ([3]; 2D) of 146% and a viability at 20 µM ([3]; 2D) of 157%. The viability at 1 µM ([3]; 3D (deacylated gellan gum)) was 132%, the viability at 5 µM ([3]; 3D (deacylated gellan gum)) was 330% and the viability at 10 µM ([3]; 3D (deacylated gellan gum)) was 579%. For the same molecule, the viability at 20 µM ([3]; 3D (deacylated gellan gum)) was 773%, the viability at 1 µM ([3]; EZSPHERE plate) was 149% and the viability at 5 µM ([3]; EZSPHERE plate) was 241%. The viability at 10 µM ([3]; EZSPHERE plate) was 321%, the viability at 20 µM ([3]; EZSPHERE plate) was 231% and the “proliferation activity (in words)” value ([3]; three-dimensional cell culture conditions) was “promoted proliferation activity of BM-hMSC”. The “proliferation activity (in words)” value ([3]; two-dimensional cell culture conditions) was “promoted proliferation activity of hMSC”, the “number of viable cells (RLU), relative value to control (100%)” value (“number … relative value to control (100%)” for short) [4, 8] was “⊙” and the “number … relative value to control (100%)” value [4, 9] was “⊙”. The “number … relative value to control (100%)” value [4, 10] was “⊙”, the “number … relative value to control (100%)” value [4, 11] was “⊙” and the “number … relative value to control (100%)” value [5, 8] was “⊙”. The “number … relative value to control (100%)” value [5, 9] was “⊙”, the “number … relative value to control (100%)” value [5, 10] was “⊙” and the “number … relative value to control (100%)” value [5, 11] was “⊙”.

From patent US20200165194A1, “ADDITIVE COMPOSITION FOR CULTURE MEDIUM, ADDITIVE COMPOUND FOR CULTURE MEDIUM, AND METHOD FOR CULTURE OF CELLS OR TISSUE USING SAME” (NISSAN CHEMICAL CORPORATION, priority 2017, published 2020)
